How the values were obtained:
Mus musculus = assay: Toxicity in human MDA-MB-468 cells xenografted CB-17 SCID mouse assessed as reduction in body weight at 25 mg/kg, ip qd for 21 days; type: organism-based; parameters: dose 25 mg/kg, route intraperitoneal; details: in vivo, 504 h
MDA-MB-468 [1] = assay: Antitumor activity against human MDA-MB-468 cells xenografted in CB-17 SCID mouse assessed as reduction in tumor size at 50 mg/kg, ip qd for 21 days; type: functional; details: MDA-MB-468, ip, 504 h, route intraperitoneal, read-out: TGI
MDA-MB-468 [2] = assay: Antitumor activity against human MDA-MB-468 cells xenografted in CB-17 SCID mouse assessed as reduction in tumor size at 25 mg/kg, ip qd for 21 days relative to control; type: functional; details: MDA-MB-468, ip, 504 h, route intraperitoneal, read-out: TGI
[3] = Plasma protein binding in mouse at […] after 4 hrs by equilibrium dialysis method; type: ADME, cell-free; details: read-out: PPB
Aurora kinase B = Aurora kinase B (Homo sapiens, UniProt Q96GD4); assay: Inhibition of aurora B (unknown origin) by FRET-based homogeneous assay
[4] = biological target: T1, Receptor-type tyrosine-protein kinase FLT3 (Homo sapiens, UniProt P36888); assay: Inhibition of FLT3 (unknown origin) by FRET-based homogeneous assay
T1 sequence (P36888 whole entry): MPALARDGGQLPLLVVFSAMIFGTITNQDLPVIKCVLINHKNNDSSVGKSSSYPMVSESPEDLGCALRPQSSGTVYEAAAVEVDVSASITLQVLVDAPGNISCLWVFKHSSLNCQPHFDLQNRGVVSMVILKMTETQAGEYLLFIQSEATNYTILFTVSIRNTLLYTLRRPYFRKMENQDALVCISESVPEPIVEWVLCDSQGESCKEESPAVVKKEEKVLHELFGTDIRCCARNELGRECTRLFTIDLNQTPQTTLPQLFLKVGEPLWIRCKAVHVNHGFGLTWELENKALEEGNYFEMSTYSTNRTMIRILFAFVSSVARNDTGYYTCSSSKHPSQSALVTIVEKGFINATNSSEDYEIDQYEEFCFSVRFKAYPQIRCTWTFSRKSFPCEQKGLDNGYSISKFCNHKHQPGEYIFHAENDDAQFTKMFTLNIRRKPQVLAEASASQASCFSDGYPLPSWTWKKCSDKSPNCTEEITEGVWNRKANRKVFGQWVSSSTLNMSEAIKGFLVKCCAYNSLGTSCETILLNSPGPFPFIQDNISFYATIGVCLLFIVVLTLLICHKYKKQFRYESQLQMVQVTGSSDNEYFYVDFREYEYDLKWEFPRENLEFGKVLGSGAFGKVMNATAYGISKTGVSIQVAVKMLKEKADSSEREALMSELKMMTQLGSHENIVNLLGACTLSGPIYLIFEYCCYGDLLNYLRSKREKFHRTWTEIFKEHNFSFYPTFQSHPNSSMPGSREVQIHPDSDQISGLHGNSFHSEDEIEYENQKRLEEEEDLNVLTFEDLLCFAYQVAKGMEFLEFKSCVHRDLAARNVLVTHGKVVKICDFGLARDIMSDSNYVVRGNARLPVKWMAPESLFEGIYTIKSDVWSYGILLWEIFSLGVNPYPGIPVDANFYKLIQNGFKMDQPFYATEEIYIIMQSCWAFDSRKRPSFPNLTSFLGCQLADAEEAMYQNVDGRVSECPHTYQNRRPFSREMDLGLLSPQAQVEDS

[5] = Permeability of the compound at pH 7.4 by PAMPA; type: ADME; details: read-out: permeability
Cytochrome P450 2C9 = Cytochrome P450 2C9 (Homo sapiens, UniProt P11712); assay: Inhibition of CYP2C9 (unknown origin) using MFC as substrate after 45 mins by fluorescence assay; type: ADME
Cytochrome P450 2D6 = Cytochrome P450 2D6 (Homo sapiens, UniProt P10635); assay: Inhibition of CYP2D6 (unknown origin) using AMMC as substrate after 30 mins by fluorescence assay; type: ADME
HCC1954 = assay: Antiproliferative activity against human HCC1954 cells assessed as growth inhibition after 5 days by SRB assay; type: functional; details: HCC1954, 120 h
SK-BR-3 = assay: Antiproliferative activity against human SKBR3 cells assessed as growth inhibition after 5 days by SRB assay; type: functional; details: SK-BR-3, 120 h
MDA-MB-468 [6] = assay: Antiproliferative activity against human MDA-MB-468 cells assessed as growth inhibition after 5 days by SRB assay; type: functional; details: MDA-MB-468, 120 h
[7] = biological target: Serine/threonine-protein kinase PLK1 (Homo sapiens, UniProt P53350); assay: Inhibition of PLK1 (unknown origin) by FRET-based homogeneous assay
[8] = biological target: Serine/threonine-protein kinase PLK2 (Homo sapiens, UniProt Q9NYY3); assay: Inhibition of PLK2 (unknown origin) by FRET-based homogeneous assay
[9] = biological target: T2, Serine/threonine-protein kinase PLK4 (Homo sapiens, UniProt O00444); assay: Inhibition of N-terminal GST-tagged human PLK4 (1 to 391 amino acids) expressed in Escherichia coli using TMB as substrate after 30 mins by indirect ELISA assay
T2 sequence (O00444 whole entry): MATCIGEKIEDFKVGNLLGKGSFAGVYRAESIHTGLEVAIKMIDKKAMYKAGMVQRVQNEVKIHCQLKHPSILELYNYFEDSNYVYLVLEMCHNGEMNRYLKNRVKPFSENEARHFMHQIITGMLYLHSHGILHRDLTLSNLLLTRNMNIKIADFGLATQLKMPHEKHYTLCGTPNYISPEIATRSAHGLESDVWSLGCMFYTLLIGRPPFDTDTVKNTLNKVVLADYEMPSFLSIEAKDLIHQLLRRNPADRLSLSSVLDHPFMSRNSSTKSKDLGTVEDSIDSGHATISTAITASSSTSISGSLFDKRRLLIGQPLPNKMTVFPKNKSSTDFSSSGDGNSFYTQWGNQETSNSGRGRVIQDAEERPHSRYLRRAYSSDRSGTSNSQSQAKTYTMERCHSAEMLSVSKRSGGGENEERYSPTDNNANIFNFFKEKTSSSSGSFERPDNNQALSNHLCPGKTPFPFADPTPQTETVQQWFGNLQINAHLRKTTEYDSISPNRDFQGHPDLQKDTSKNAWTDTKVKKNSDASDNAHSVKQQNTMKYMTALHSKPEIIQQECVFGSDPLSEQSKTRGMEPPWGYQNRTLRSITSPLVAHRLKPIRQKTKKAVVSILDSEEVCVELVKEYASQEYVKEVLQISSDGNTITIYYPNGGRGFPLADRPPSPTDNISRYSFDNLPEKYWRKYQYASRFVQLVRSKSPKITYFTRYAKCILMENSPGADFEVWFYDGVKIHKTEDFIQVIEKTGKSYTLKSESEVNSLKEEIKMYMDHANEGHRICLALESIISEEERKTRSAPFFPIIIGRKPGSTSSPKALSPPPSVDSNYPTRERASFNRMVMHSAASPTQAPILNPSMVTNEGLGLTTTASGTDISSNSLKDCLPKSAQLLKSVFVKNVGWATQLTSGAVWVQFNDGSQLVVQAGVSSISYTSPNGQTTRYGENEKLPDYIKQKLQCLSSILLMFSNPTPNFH

Cytochrome P450 2C9, sequence (P11712 whole entry): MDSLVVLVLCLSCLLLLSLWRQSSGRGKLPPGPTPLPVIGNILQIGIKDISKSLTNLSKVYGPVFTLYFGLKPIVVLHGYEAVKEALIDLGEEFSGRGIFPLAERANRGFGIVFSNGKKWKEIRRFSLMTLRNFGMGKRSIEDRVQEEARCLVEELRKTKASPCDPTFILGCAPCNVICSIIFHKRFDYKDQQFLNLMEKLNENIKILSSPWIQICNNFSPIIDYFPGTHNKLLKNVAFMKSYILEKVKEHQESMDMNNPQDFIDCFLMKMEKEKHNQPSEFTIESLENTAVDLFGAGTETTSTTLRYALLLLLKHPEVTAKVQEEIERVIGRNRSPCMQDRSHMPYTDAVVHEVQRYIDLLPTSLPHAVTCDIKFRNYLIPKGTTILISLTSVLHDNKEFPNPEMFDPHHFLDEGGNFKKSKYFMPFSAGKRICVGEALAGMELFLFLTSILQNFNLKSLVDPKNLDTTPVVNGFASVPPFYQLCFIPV
Cytochrome P450 2D6, sequence (P10635 whole entry): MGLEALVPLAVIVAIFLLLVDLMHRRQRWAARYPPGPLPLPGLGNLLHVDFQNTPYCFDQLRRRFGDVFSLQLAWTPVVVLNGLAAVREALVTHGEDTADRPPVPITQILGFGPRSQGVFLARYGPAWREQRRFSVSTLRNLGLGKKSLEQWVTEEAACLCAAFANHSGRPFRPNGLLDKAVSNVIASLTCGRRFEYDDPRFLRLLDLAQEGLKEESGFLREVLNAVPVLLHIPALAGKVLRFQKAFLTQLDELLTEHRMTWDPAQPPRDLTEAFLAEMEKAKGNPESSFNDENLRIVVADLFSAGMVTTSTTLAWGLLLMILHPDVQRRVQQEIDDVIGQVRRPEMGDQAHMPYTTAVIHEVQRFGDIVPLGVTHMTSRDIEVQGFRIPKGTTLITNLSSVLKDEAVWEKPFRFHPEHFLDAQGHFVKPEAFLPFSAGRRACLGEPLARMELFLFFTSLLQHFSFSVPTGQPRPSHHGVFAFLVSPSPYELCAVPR
Serine/threonine-protein kinase PLK2, sequence (Q9NYY3 whole entry, the tested form may be a part): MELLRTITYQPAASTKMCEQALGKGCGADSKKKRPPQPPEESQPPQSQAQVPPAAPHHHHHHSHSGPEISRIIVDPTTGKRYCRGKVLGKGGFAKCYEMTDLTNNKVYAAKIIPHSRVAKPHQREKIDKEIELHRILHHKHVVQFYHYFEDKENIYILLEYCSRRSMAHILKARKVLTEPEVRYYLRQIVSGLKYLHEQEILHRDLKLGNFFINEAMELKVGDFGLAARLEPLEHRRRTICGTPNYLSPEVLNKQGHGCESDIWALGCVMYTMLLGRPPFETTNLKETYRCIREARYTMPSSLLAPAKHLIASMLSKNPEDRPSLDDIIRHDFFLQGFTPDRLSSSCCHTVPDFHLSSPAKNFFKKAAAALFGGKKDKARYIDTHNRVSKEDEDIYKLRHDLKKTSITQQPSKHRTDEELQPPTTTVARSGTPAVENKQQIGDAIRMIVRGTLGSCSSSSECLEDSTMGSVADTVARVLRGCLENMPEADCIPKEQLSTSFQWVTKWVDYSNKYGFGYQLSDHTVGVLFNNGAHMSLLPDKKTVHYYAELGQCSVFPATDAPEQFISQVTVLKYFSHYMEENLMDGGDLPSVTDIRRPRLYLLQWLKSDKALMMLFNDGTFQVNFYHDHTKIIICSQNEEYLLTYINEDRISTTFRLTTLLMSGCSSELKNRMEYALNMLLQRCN
Serine/threonine-protein kinase PLK1, sequence (P53350 whole entry): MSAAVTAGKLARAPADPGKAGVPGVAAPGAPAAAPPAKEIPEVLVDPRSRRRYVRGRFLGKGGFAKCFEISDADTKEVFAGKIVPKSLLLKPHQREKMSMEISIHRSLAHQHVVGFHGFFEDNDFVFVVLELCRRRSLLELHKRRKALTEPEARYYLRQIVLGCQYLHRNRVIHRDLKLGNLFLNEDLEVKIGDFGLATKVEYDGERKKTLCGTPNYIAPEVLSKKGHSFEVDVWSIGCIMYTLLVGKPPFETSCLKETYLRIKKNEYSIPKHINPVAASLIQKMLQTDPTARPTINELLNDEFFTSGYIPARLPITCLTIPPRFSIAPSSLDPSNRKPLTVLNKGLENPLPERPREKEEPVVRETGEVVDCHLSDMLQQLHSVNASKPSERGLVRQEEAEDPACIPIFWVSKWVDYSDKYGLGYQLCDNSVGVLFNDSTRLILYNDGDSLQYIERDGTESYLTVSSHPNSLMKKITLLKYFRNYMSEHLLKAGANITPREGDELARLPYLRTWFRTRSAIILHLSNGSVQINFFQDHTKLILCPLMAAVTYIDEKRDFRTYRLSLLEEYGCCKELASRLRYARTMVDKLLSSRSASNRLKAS
Aurora kinase B, sequence (Q96GD4 whole entry): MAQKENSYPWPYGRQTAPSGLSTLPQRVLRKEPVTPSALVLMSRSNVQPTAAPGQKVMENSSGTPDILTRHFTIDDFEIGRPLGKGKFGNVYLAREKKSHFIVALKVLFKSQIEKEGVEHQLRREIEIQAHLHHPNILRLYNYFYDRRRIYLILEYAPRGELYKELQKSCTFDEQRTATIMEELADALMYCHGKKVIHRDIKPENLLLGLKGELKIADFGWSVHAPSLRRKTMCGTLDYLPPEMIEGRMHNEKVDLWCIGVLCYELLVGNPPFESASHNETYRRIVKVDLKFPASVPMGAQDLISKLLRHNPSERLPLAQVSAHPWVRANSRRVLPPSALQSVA

Compound: COc1ccc2c(c1)/C(=C\c1ccc3c(/C=C/c4ccc(N5CCN(C)CC5)nc4)n[nH]c3c1)C(=O)N2
- Activity (Mus musculus): Non-toxic
- inhibition in vivo at 50 mg/kg (MDA-MB-468 [1]): 120%
- inhibition in vivo at 25 mg/kg (MDA-MB-468 [2]): 70%
- fraction unbound at 4 h [3]: 0.01
- IC50 (Aurora kinase B): 0.21 µM
- IC50 [4]: 0.18 µM
- Papp [5]: 1640 nm/s
- IC50 (Cytochrome P450 2C9): 0.8 µM
- IC50 (Cytochrome P450 2D6): > 10 µM
- GI50 (HCC1954): 2.3 µM
- GI50 (SK-BR-3): 2.3 µM
- GI50 (MDA-MB-468 [6]): < 0.01 µM
- IC50 [7]: > 10 µM
- IC50 [8]: > 10 µM
- IC50 [9]: 0.00061 µM
